Source: patent publication US8227464B2, “Substituted oxazolidinone derivatives” (Concert Pharmaceuticals, Inc., priority 2007, dated 2012)
Like-named read-outs stand apart in the source and are kept apart here.

Legend:
[1] = Pharmacokinetics in male Sprague Dawley rats following oral co-dosing; format: in vivo
Procedure: Separate solutions of rivaroxaban and Compound 101 were prepared using 20% ethanol, 60% PEG400, 20% dimethyl isosorbide to provide a concentration of 10 mg/mL. The concentration of each solution was confirmed by HPLC prior to further use. A combination dose of rivaroxaban and Compound 101 was prepared by mixing the two solutions in a 1.09:1 ratio to yield a final concentration of 5.45 mg/mL of rivaroxaban and 5 mg/mL for Compound 101.
Two male Sprague Dawley rats were dosed by oral gavage with the combination dose containing rivaroxaban (5.45 mg/kg) and compound 101 (5 mg/kg). Blood samples (approximately 0.25 mL) were collected retro-orbitally following oral administration at 0 minutes (min) (pre-dose), 5 min, 15 min, 30 min, 1 hr, 1.5 hr, 2 hr, 4 hr, 6 hr, 8 hr, 10 hr and 24 hr post-dose. Blood samples were stored on ice and centrifuged within 15 minutes of collection to harvest plasma. The plasma was decanted immediately and frozen at −20° C. until analysis.
Analyses of plasma samples were performed using a high performance liquid chromatography/mass spectrometry (HPLC/MS/MS) method. The LC system comprised an Agilent (Agilent Technologies Inc. USA) liquid chromatograph equipped with an isocratic pump (1100 series), an autosampler (1100 series) and a degasser (1100 series). Mass spectrometric analysis was performed using an API3000 (triple-quadrupole) instrument from AB Inc (Canada) with an ESI interface. The data acquisition and control system were created using Analyst 1.4 software from ABI Inc. Data for rivaroxaban was corrected by multiplying by a factor of 0.91 to compensate for the 9% increased amount administered as compared to Compound 101.

[2] = major in vivo metabolites of rivaroxaban; Weinz et al. 2004; cited from earlier work
[3] = use of rivaroxaban; Kubitza et al. 2005; cited from earlier work
[4] = male Sprague Dawley rats, oral gavage co-dose: rivaroxaban 5.45 mg/kg (data multiplied by 0.91) and Compound 101 5 mg/kg, plasma

SMILES: [2H]C1([2H])OC([2H])([2H])C([2H])([2H])N(c2ccc(N3C[C@H](CNC(=O)c4ccc(Cl)s4)OC3=O)cc2)C1=O [Compound 101, (S)-5-chloro-N-((2-oxo-3-(4-(3-oxo-2,2,5,5,6,6-d6-morpholino)phenyl)oxazolidin-5-yl)methyl)thiophene-2-carboxamide]
- AUC∞ [1, 4]: 3424.33 ng·h/mL
- Cmax [1, 4]: 962 ng/mL
- increase in AUC as compared to rivaroxaban ([1]; rats, oral co-dosing): greater than 16%
- increase in Cmax as compared to rivaroxaban ([1]; rats, oral co-dosing): greater than 14%

SMILES: O=C(O)CNC(=O)c1ccc(Cl)s1 [Compound M4]
- activity of metabolite [2]: Neither metabolite is active

SMILES: O=C(NC[C@H]1CN(c2ccc(N3CCOCC3=O)cc2)C(=O)O1)c1ccc(Cl)s1 [Rivaroxaban, 5-chloro-N-[2-oxo-3-[4-(3-oxomorpholin-4-yl)phenyl]oxazolidin-5(S)-ylmethyl]thiophene-2-carboxamide, reference compound]
- AUC(0-inf) ([1]; rat, male Sprague Dawley rats, oral gavage co-dose: rivaroxaban 5.45 mg/kg (data multiplied by 0.91) and Compound 101 5 mg/kg, plasma): 2930 ng·h/mL
- Cmax ([1]; rat, male Sprague Dawley rats, oral gavage co-dose: rivaroxaban 5.45 mg/kg (data multiplied by 0.91) and Compound 101 5 mg/kg, plasma, read-out: Cmax): 842 ng/mL
- adverse events [3]: ageusia (loss of taste), ecchymosis (bruising) and headache
